{"source": "paper PMC9516332", "about": "(Frontiers in Oncology, 2022)", "key": {"134 cancer cell lines": {"tested_on": "134 cancer cell lines", "assay": "Cell viability assay (ATPlite, 72 hours), IC50 on cancer cell line panel"}, "[1]": {"target": "T1, panel of 255 wild-type kinases (Homo sapiens, UniProt P15735)", "T1 sequence (P15735 1-406)": "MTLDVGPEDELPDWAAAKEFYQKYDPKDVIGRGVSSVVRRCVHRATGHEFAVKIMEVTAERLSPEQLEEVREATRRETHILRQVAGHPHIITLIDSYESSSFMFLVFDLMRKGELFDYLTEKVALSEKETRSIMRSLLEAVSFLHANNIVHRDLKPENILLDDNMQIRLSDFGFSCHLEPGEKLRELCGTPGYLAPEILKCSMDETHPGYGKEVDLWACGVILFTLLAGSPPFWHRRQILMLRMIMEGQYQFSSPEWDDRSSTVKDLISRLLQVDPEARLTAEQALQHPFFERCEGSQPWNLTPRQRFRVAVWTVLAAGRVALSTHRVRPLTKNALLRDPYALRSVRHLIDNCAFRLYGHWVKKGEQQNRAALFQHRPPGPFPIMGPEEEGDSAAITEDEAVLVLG", "conditions": "cited from earlier work"}}, "note": "Read-outs that look alike come from different tables or passages of the source.", "data": [{"molecule": "COc1cc(N2CCC(N3CCN(C)CC3)CC2)ccc1Nc1ncc(Cl)c(Nc2ccccc2P(C)(C)=O)n1", "note": "[brigatinib]", "values": [{"measurement": "IC50", "setting": "134 cancer cell lines; Homo sapiens, LoVo, read-out: IC50 in cell proliferation assay", "result": 2.02, "unit": "µM"}, {"measurement": "IC50", "setting": "134 cancer cell lines; Homo sapiens, MCF7, read-out: IC50 in cell proliferation assay", "result": 0.601, "unit": "µM"}, {"measurement": "IC50", "setting": "134 cancer cell lines; Homo sapiens, MDA-MB-231, read-out: IC50 in cell proliferation assay", "result": 2, "unit": "µM"}, {"measurement": "IC50", "setting": "134 cancer cell lines; Homo sapiens, MDA-MB-453, read-out: IC50 in cell proliferation assay", "result": 6.65, "unit": "µM"}, {"measurement": "IC50", "setting": "134 cancer cell lines; Homo sapiens, MDA-MB-468, read-out: IC50 in cell proliferation assay", "result": 2.01, "unit": "µM"}, {"measurement": "IC50", "setting": "134 cancer cell lines; Homo sapiens, MG-63, read-out: IC50 in cell proliferation assay", "result": 1.05, "unit": "µM"}, {"measurement": "IC50", "setting": "134 cancer cell lines; Homo sapiens, MIA PaCa-2, read-out: IC50 in cell proliferation assay", "result": 1.19, "unit": "µM"}, {"measurement": "IC50", "setting": "134 cancer cell lines; Homo sapiens, MKN-45, read-out: IC50 in cell proliferation assay", "result": 2.64, "unit": "µM"}, {"measurement": "IC50", "setting": "134 cancer cell lines; Homo sapiens, MOLM-13, read-out: IC50 in cell proliferation assay", "result": 0.058, "unit": "µM"}, {"measurement": "IC50", "setting": "134 cancer cell lines; Homo sapiens, MOLT-4, read-out: IC50 in cell proliferation assay", "result": 1.95, "unit": "µM"}, {"measurement": "IC50", "setting": "134 cancer cell lines; Homo sapiens, MV4-11, read-out: IC50 in cell proliferation assay", "result": 0.033, "unit": "µM"}, {"measurement": "IC50", "setting": "134 cancer cell lines; Homo sapiens, MeWo, read-out: IC50 in cell proliferation assay", "result": "> 10", "unit": "µM"}, {"measurement": "IC50", "setting": "134 cancer cell lines; Homo sapiens, NCCIT, read-out: IC50 in cell proliferation assay", "result": 2.68, "unit": "µM"}, {"measurement": "IC50", "setting": "134 cancer cell lines; Homo sapiens, NCI-H82, read-out: IC50 in cell proliferation assay", "result": 1.98, "unit": "µM"}, {"measurement": "IC50", "setting": "134 cancer cell lines; Homo sapiens, NCI-H460, read-out: IC50 in cell proliferation assay", "result": 1.38, "unit": "µM"}, {"measurement": "IC50", "setting": "134 cancer cell lines; Homo sapiens, NCI-H661, read-out: IC50 in cell proliferation assay", "result": 0.402, "unit": "µM"}, {"measurement": "IC50", "setting": "134 cancer cell lines; Homo sapiens, NCI-H716, read-out: IC50 in cell proliferation assay", "result": 0.201, "unit": "µM"}, {"measurement": "IC50", "setting": "134 cancer cell lines; Homo sapiens, NCI-H1650, read-out: IC50 in cell proliferation assay", "result": 0.673, "unit": "µM"}, {"measurement": "IC50", "setting": "134 cancer cell lines; Homo sapiens, NCI-H1975, read-out: IC50 in cell proliferation assay", "result": 0.449, "unit": "µM"}, {"measurement": "IC50", "setting": "134 cancer cell lines; Homo sapiens, NCI-H2228, read-out: IC50 in cell proliferation assay", "result": 0.008, "unit": "µM"}, {"measurement": "IC50", "setting": "134 cancer cell lines; Homo sapiens, OVCAR-3, read-out: IC50 in cell proliferation assay", "result": 0.939, "unit": "µM"}, {"measurement": "IC50", "setting": "134 cancer cell lines; Homo sapiens, PFSK-1, read-out: IC50 in cell proliferation assay", "result": 0.592, "unit": "µM"}, {"measurement": "IC50", "setting": "134 cancer cell lines; Homo sapiens, RL95-2, read-out: IC50 in cell proliferation assay", "result": 0.652, "unit": "µM"}, {"measurement": "IC50", "setting": "134 cancer cell lines; Homo sapiens, RPMI-7951, read-out: IC50 in cell proliferation assay", "result": 1.28, "unit": "µM"}, {"measurement": "IC50", "setting": "134 cancer cell lines; Homo sapiens, RS4-11, read-out: IC50 in cell proliferation assay", "result": 0.473, "unit": "µM"}, {"measurement": "IC50", "setting": "134 cancer cell lines; Homo sapiens, Rec1, read-out: IC50 in cell proliferation assay", "result": 1.32, "unit": "µM"}, {"measurement": "IC50", "setting": "134 cancer cell lines; Homo sapiens, SHP77, read-out: IC50 in cell proliferation assay", "result": 5.19, "unit": "µM"}, {"measurement": "IC50", "setting": "134 cancer cell lines; Homo sapiens, SK-BR-3, read-out: IC50 in cell proliferation assay", "result": 1.36, "unit": "µM"}, {"measurement": "IC50", "setting": "134 cancer cell lines; Homo sapiens, SK-N-AS, read-out: IC50 in cell proliferation assay", "result": 0.618, "unit": "µM"}, {"measurement": "IC50", "setting": "134 cancer cell lines; Homo sapiens, SK-N-FI, read-out: IC50 in cell proliferation assay", "result": 1.09, "unit": "µM"}, {"measurement": "IC50", "setting": "134 cancer cell lines; Homo sapiens, SK-N-MC, read-out: IC50 in cell proliferation assay", "result": 0.401, "unit": "µM"}, {"measurement": "IC50", "setting": "134 cancer cell lines; Homo sapiens, SK-N-SH, read-out: IC50 in cell proliferation assay", "result": 0.367, "unit": "µM"}, {"measurement": "IC50", "setting": "134 cancer cell lines; Homo sapiens, SNU-5, read-out: IC50 in cell proliferation assay", "result": 2.15, "unit": "µM"}, {"measurement": "IC50", "setting": "134 cancer cell lines; Homo sapiens, SNU-16, read-out: IC50 in cell proliferation assay", "result": 0.376, "unit": "µM"}, {"measurement": "IC50", "setting": "134 cancer cell lines; Homo sapiens, SNU-C2B, read-out: IC50 in cell proliferation assay", "result": 0.741, "unit": "µM"}, {"measurement": "IC50", "setting": "134 cancer cell lines; Homo sapiens, SU-DHL-1, read-out: IC50 in cell proliferation assay", "result": 0.035, "unit": "µM"}, {"measurement": "IC50", "setting": "134 cancer cell lines; Homo sapiens, SU-DHL-6, read-out: IC50 in cell proliferation assay", "result": 1.34, "unit": "µM"}, {"measurement": "IC50", "setting": "134 cancer cell lines; Homo sapiens, SUP-T1, read-out: IC50 in cell proliferation assay", "result": 1.48, "unit": "µM"}, {"measurement": "IC50", "setting": "134 cancer cell lines; Homo sapiens, SW48, read-out: IC50 in cell proliferation assay", "result": 0.713, "unit": "µM"}, {"measurement": "IC50", "setting": "134 cancer cell lines; Homo sapiens, SW480, read-out: IC50 in cell proliferation assay", "result": 1.09, "unit": "µM"}, {"measurement": "IC50", "setting": "134 cancer cell lines; Homo sapiens, SW626, read-out: IC50 in cell proliferation assay", "result": 1.3, "unit": "µM"}, {"measurement": "IC50", "setting": "134 cancer cell lines; Homo sapiens, SW780, read-out: IC50 in cell proliferation assay", "result": 0.317, "unit": "µM"}, {"measurement": "IC50", "setting": "134 cancer cell lines; Homo sapiens, SW837, read-out: IC50 in cell proliferation assay", "result": 0.663, "unit": "µM"}, {"measurement": "IC50", "setting": "134 cancer cell lines; Homo sapiens, SW872, read-out: IC50 in cell proliferation assay", "result": 0.78, "unit": "µM"}, {"measurement": "IC50", "setting": "134 cancer cell lines; Homo sapiens, SW900, read-out: IC50 in cell proliferation assay", "result": 0.537, "unit": "µM"}, {"measurement": "IC50", "setting": "134 cancer cell lines; Homo sapiens, SW948, read-out: IC50 in cell proliferation assay", "result": 1.44, "unit": "µM"}, {"measurement": "IC50", "setting": "134 cancer cell lines; Homo sapiens, SW982, read-out: IC50 in cell proliferation assay", "result": 0.49, "unit": "µM"}, {"measurement": "IC50", "setting": "134 cancer cell lines; Homo sapiens, SW-620, read-out: IC50 in cell proliferation assay", "result": 0.98, "unit": "µM"}, {"measurement": "IC50", "setting": "134 cancer cell lines; Homo sapiens, T98G, read-out: IC50 in cell proliferation assay", "result": 1.34, "unit": "µM"}, {"measurement": "IC50", "setting": "134 cancer cell lines; Homo sapiens, TCC-SUP, read-out: IC50 in cell proliferation assay", "result": 1.42, "unit": "µM"}, {"measurement": "IC50", "setting": "134 cancer cell lines; Homo sapiens, THP-1, read-out: IC50 in cell proliferation assay", "result": 6.38, "unit": "µM"}, {"measurement": "IC50", "setting": "134 cancer cell lines; Homo sapiens, U2OS, read-out: IC50 in cell proliferation assay", "result": 1.24, "unit": "µM"}, {"measurement": "IC50", "setting": "134 cancer cell lines; Homo sapiens, U-87 MG, read-out: IC50 in cell proliferation assay", "result": 8.53, "unit": "µM"}, {"measurement": "IC50", "setting": "134 cancer cell lines; Homo sapiens, U-118-MG, read-out: IC50 in cell proliferation assay", "result": 1.88, "unit": "µM"}, {"measurement": "IC50", "setting": "134 cancer cell lines; Homo sapiens, UMUC3, read-out: IC50 in cell proliferation assay", "result": 1.32, "unit": "µM"}, {"measurement": "IC50", "setting": "134 cancer cell lines; Hs766T, read-out: IC50 in cell proliferation assay", "result": 2.54, "unit": "µM"}, {"measurement": "IC50", "setting": "134 cancer cell lines; L-82, read-out: IC50 in cell proliferation assay", "result": 0.00637, "unit": "µM"}, {"measurement": "IC50", "setting": "134 cancer cell lines; Rh30, read-out: IC50 in cell proliferation assay", "result": 0.464, "unit": "µM"}, {"measurement": "%-inhibition at 1 µmol/L, PHKG2", "setting": "[1]", "result": 96, "unit": "%"}]}]}
